According to patent publication US6680058B1, “Compositions and methods for contraception in or sterilization of mammals” (Board of Supervisors of Louisiana State University and …, priority 1997, dated 2004):

Tests used:
granulosa cells = test: Steroid hormone production by granulosa cells (data not shown); type: cell-based, bovine
From the text: Stimulation of target cell hormone production was not required for cell lysis.

[1] = system: sexually mature, Sprague-Dawley female rats; test: Sexually mature Sprague-Dawley female rats, single intravenous treatment, necropsy 48 or 96 hours after treatment, H&E and PAS stain (Examples 15-22); type: in vivo, rat; conditions: 334 μg in 200 μL saline (1.35 mM) i.v.; sacrificed 48 or 96 hours after injection
Protocol: Eight sexually mature, Sprague-Dawley female rats were randomly assigned to one of eight treatments. Each group of rats received a single treatment intravenously, as described below. Rats were sacrificed and necropsied either 48 or 96 hours after treatment. The ovaries, uterus, pancreas, liver, spleen, lungs, heart, thyroid, and adrenal glands were fixed in 10% buffered formalin; sectioned; and stained with H&E (hematoxylin and eosin) stain; except that the pituitary glands were stained with PAS (periodic acid-Schiff) stain with no counter-stain. The treatments were selected so that each animal received an equimolar amount of the compound with which it was treated.

GnRH receptor [2] = molecular target: T1, GnRH receptor (Homo sapiens, UniProt P30968); conditions: reported; see U.S. Pat. No. 5,488,036; cited from earlier work
T1 sequence (P30968 1-328): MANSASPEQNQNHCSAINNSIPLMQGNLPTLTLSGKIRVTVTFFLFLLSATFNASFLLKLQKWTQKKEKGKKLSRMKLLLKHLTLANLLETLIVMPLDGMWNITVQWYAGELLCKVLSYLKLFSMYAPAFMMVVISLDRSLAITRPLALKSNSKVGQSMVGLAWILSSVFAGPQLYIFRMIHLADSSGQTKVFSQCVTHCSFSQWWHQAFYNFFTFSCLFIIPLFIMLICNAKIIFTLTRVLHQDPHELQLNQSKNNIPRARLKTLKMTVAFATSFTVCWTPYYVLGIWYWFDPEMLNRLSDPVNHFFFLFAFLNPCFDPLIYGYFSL

GnRH receptor [3] = molecular target: T2, GnRH receptor (Rattus norvegicus, UniProt P30969); test: Displacement of radiolabelled monoiodinated-GnRH from rat pituitary membranes (Example 24); type: binding
T2 construct: specifically displaced radiolabelled monoiodinated-GnRH from rat pituitary membranes; from tissue; host or cells: rat pituitary membranes
T2 sequence (P30969 1-327): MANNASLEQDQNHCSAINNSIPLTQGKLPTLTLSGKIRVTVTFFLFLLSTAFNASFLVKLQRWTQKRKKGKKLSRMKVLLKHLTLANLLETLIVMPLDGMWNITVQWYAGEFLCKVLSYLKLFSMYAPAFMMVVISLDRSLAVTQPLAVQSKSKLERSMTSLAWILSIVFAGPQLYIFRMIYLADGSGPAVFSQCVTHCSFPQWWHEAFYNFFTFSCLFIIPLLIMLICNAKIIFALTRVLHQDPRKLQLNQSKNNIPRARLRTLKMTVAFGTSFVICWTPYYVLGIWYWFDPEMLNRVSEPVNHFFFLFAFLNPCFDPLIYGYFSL
From the text: We also synthesized D-Lys^6GnRH (SEQ. ID NO. 13), so that hecate could be conjugated to the D-Lys^6, a position that could minimize interference with binding of the GnRH domain to the GnRH receptor. These synthetic peptides specifically displaced radiolabelled monoiodinated-GnRH from rat pituitary membranes.

[4] = system: pituitary basophilic (gonadotropic) cells; test: Adult female rat pituitary gland sections in tissue culture, histology ten hours after treatment (Examples 1-6); type: cell-based; conditions: 50 μM hecate in the medium; ten hours
Protocol: The pituitary gland of an adult female rat was harvested and divided into six sections of approximately equal size. One section was placed in each of six wells containing tissue culture medium at 37° C. A different treatment was applied to each well, as described below. Ten hours after treatment, the tissue from each well was fixed, and the histology of each was examined microscopically.

[5] = system: sexually mature, mixed breed, female rats; test: Sexually mature female rats, double intravenous treatment, necropsy two weeks after treatment (Examples 9-14); type: in vivo, rat; conditions: Treatment 12: hecate 337 μg i.v., repeated after 24 hours; two weeks
From the text: Eighteen sexually mature, mixed breed, female rats were randomly assigned to one of six groups containing three rats each. Each group of rats received a double treatment intravenously, as described below. Two weeks after the treatment, the rats were sacrificed and necropsied. The reproductive and endocrine organs were sectioned, weighed, and examined histologically.

[6] = system: bovine small luteal cells; test: In vitro lysis of bovine small luteal cells, Trypan Blue exclusion and release of lactic dehydrogenase (Examples 25-32); type: cell-based; conditions: 22 hr. incubation; for killing of small luteal cells: Trypan Blue exclusion
Protocol: We studied in vitro lysis of bovine luteal cells with GnRH-hecate conjugate and with hecate-bLH conjugate (SEQ. ID NO. 12). (The bLH component of the conjugate is a 15-mer fragment of the beta chain of luteinizing hormone, SEQ. ID NO. 11). Small luteal cells were collected from cattle corpora lutea post-slaughter.
Small luteal cells in culture were incubated with one of the following treatments for 22 hours, and were then examined for viability using Trypan Blue exclusion and release of lactic dehydrogenase.

bovine granulosa cells = test: In vitro lysis of bovine granulosa cells (Examples 33-34); type: cell-based; conditions: hecate alone; compared with small luteal cells
From the text: We also studied in vitro lysis of bovine granulosa cells with GnRH-hecate conjugate and with hecate-bLH conjugate. Granulosa cells were isolated from bovine pre-ovulatory follicles. (Granulosa cells are hormonally active cells with numerous LH receptors.) Our experiments with granulosa cells were otherwise generally similar to those described above for Examples 25-32.

Bonamia ostreae = conditions: in vitro; Morvan et al. 1994; cited from earlier work
[7] = system: cells of the flat oyster Ostrea edulis; conditions: at the doses that reduced parasite viability; Morvan et al. 1994; cited from earlier work

Compound: 15-mer fragment of the bLH subunit: 15-mer fragment of the beta chain of luteinizing hormone, SEQ. ID NO. 11 (SYAVALSCQCALCRR)
- production of steroid hormones (stimulus-coupled response) (granulosa cells): did not initiate the production of steroid hormones

Compound: CC(C)C[C@H](NC(=O)CNC(=O)[C@H](Cc1ccc(O)cc1)NC(=O)[C@H](CO)NC(=O)[C@H](Cc1c[nH]c2ccccc12)NC(=O)[C@H](Cc1cnc[nH]1)NC(=O)[C@@H]1CCC(=O)N1)C(=O)N[C@@H](CCCNC(=N)N)C(=O)N1CCC[C@H]1C(=O)NCC(N)=O [GnRH, gonadotropin-releasing hormone, reference compound]
- gross lesions in the organs [1]: No gross lesions

Compound: CCNC(=O)[C@@H]1CCCN1C(=O)[C@H](CCCNC(=N)N)NC(=O)[C@H](CC(C)C)NC(=O)[C@@H](COC(C)(C)C)NC(=O)[C@H](Cc1ccc(O)cc1)NC(=O)[C@H](CO)NC(=O)[C@H](Cc1c[nH]c2ccccc12)NC(=O)[C@H](Cc1cnc[nH]1)NC(=O)[C@@H]1CCC(=O)N1 [buserelin]
- binding affinity to the GnRH receptor compared with GnRH (GnRH receptor [2]): greater binding affinity to the GnRH receptor than does GnRH itself

Compound: CC(C)C[C@H](NC(=O)[C@@H](COC(C)(C)C)NC(=O)[C@H](Cc1ccc(O)cc1)NC(=O)[C@H](CO)NC(=O)[C@H](Cc1c[nH]c2ccccc12)NC(=O)[C@H](Cc1cnc[nH]1)NC(=O)[C@@H]1CCC(=O)N1)C(=O)N[C@@H](CCCNC(=N)N)C(=O)N1CCC[C@H]1C(=O)NNC(N)=O [goserelin]
- binding affinity to the GnRH receptor compared with GnRH (GnRH receptor [2]): greater binding affinity to the GnRH receptor than does GnRH itself

Compound: CCNC(=O)[C@@H]1CCCN1C(=O)[C@H](CCCNC(=N)N)NC(=O)[C@H](CC(C)C)NC(=O)[C@@H](CC(C)C)NC(=O)[C@H](Cc1ccc(O)cc1)NC(=O)[C@H](CO)NC(=O)[C@H](Cc1c[nH]c2ccccc12)NC(=O)[C@H](Cc1c[nH]cn1)NC(=O)[C@@H]1CCC(=O)N1 [leuprolide]
- binding affinity to the GnRH receptor compared with GnRH (GnRH receptor [2]): greater binding affinity to the GnRH receptor than does GnRH itself

Compound: D-Lys^6GnRH-hecate: hecate conjugated to the D-Lys^6 of D-Lys^6GnRH
- displacement of radiolabelled monoiodinated-GnRH, compared with native mammalian GnRH (GnRH receptor [3]; as measured by cpm of radioactivity): comparable to (and actually slightly greater than) displacement by native mammalian GnRH

Compound: D-Lys^6GnRH: GnRH analog with D-Lys at position 6, SEQ. ID NO. 13
- specific displacement of the radiolabelled peptide relative to equimolar concentrations of GnRH (GnRH receptor [3]; molar basis over a 1000-fold concentration range (n=6), native GnRH = 100%): 187%±8%

Compound: hecate: amphipathic lytic peptide, synthetic peptide analog of melittin, SEQ. ID NO. 2 (FALALKALKKALKKLKKALKKAL) [reference compound]
- histology of pituitary tissue after treatment [4]: appeared normal
- ovarian function [5]: normal ovarian function
- cell death of small luteal cells ([6]; 1 μM): did not differ significantly from negative control (media) or from bLH alone
- killing of small luteal cells ([6]; 5 μM): approximately 50%
- killing of small luteal cells ([6]; 10 μM): Significant killing
- susceptibility of granulosa cells to killing (bovine granulosa cells): much more susceptible to killing by hecate alone than were the small luteal cells

Compound: magainin 1: antimicrobial peptide magainin 1 (GIGKFLHSAGKFGKAFVGEIMKS; Magainin-1; UniProt P11006 37-59, looked up)
- viability of the parasite Bonamia ostreae (Bonamia ostreae): selectively reduce the viability
- effect on cells of the flat oyster Ostrea edulis [7]: did not affect
